Consider one sequence from patent publication US12295997B2, “Prostate neoantigens and their uses” (Janssen Biotech, Inc., priority 2020, dated 2025).

The subject of this test is CD8+ and CD4+ T cells (autologous CD3+ Pan-T cells isolated from human normal PBMCs). Put plainly: Endogenous autologous normal donor restimulation assay (Ad5-transduced CD1c+ dendritic cells, TNFα/IFNγ flow cytometry). It counts as cell-based. The note with it: Table 27, endogenous expression, peptide pool restimulation, highest across sixteen normal donors. As to the method: CD1c+ Dendritic Cells (DC) isolated from human normal PBMCs were thawed using media (IMDM (Gibco) supplemented with glutamine, HEPES, 5% human serum (Sigma), and 1×Pen-Strep). DC cells were resuspended in media supplemented with IL-4 (Peprotech, 80 ng/mL) and GM-CSF (Gibco, 80 ng/mL), plated in 6 well microplates, and rested overnight at 37° C. (5% CO2). The following day, DC cells were counted and plated in a 96 well round bottom microplate at a concentration of 30,000 viable cells per well. Ad5 vectors (Vector Biolabs) were dilute in media to an MOI (Multiplicity Of Infection) of 5000 based on Plaque Forming Units. Ad5 vectors for the CEF pool and a “null” were used as controls. DCs were transduced with Ad5 vectors overnight at 37° C. (5% CO2). The following day, the Ad5 vectors were washed off the plate by three sequential centrifugation/aspiration steps using sterile Phosphate Buffered Saline. After the final wash, transduced DCs were resuspended in 100 μL media. Autologous CD3+ Pan-T cells isolated from human normal PBMCs were thawed using media. Pan-T cells were added to the irradiated DCs at 300,000 viable cells per well (100 μL/well). Human IL-15 (Peprotech) was added to all wells at final concentration of 10 ng/mL.
Plates were incubated at 37° C. (5% CO2) for a total of 12 days. Media was refreshed every 2-3 days with IL-15 (10 ng/mL final concentration) and IL-2 (R&D systems, 10 IU/mL final concentration). On day 11 lyophilized peptides (15-mer overlapping peptides) were solubilized in 100% DMSO and pooled by neoantigen to between 5 mg/mL and 20 mg/mL. Neoantigen peptides pools were added to cells for a final concentration of 2.5 μg/mL to 10 μg/mL. CEF Peptide Pool “Plus” (Cellular Technologies, Ltd.) was utilized as a positive control and DMSO at the same final concentration as the experimental peptides was utilized as a negative control. Protein Inhibitor Cocktail (eBioscience) was added to every well and plate was incubated overnight at 37° C. (5% CO2).
On day 12, cells were stained for intracellular flow cytometry analysis. The cells were washed with PBS and stained with Live/Dead Fixable Aqua Dead Cell stain (Thermo-Fisher). Following the live/dead stain, cells were blocked using Biotin-Free Fc Receptor Blocker (Accurate Chemical & Scientific Corp). Extracellular cellular flow panel ([…] per well in 50 μL) consisted of CD3 PerCP-Cy5.5 (Biolegend), CD4 BV421 (Biolegend), and CD8 APC-Cy7 (Biolegend). After extracellular staining, cells were fixed using Foxp3/fTranscription Factor Staining Buffer Set (eBioscience) and stained for intracellular proteins (1:50 dilution) using TNFα FITC (R&D Systems) and IFNγ BV785 (Biolegend). Cells were washed and resuspended in stain buffer and analyzed using a BD Celesta flow cytometer.
Flow cytometry cell staining analysis was completed using FlowJo v10. Cells were gated on live, singlet, CD3+ cells. The CD8+ and CD4+ T cells were analyzed for TNFα/IFNγ expression and the frequency of double positive TNFα/IFNγ CD8+ and the frequency of double positive TNFα/IFNγ CD4+ T cells were recorded. Responses were assessed to be positive when the frequency of double positive TNFα/IFNγ CD8+ or TNFα/IFNγ CD4+ T cells due to stimulation with an experimental peptide pool was increased greater than or equal to 3-fold over the DMSO only negative control for that donor and at least 0.01%.
For three of the neoantigens, an Ad5 vector was designed to transduce normal Dendritic cells with the neoantigens. This assay assessed the ability of the endogenously expressed and presented neoantigens to activate autologous T cells following overlapping 15-mer peptide pools restimulation using the endogenous autologous normal donor restimulation assay described in Example 1 utilizing TNFα and IFNγ production by CD8^+ and CD4^+ T cells as a readout. […] Sixteen donors were used to assess endogenous immunogenicity.
Background: In flow cytometry, cells or beads pass a laser one at a time.

Regarding “YEAGMTLGGKILFFLFLLLPLSPFSLIF (listed as Homo sapiens) [Neoantigen P87]”, the “Maximum Fold Change Over Background CD4+ cells” value came out at 2.41, the “Maximum Fold Change Over Background CD8+ cells” value amounted to 2.47, the “Maximum Frequency of TNFα/IFNγ Double Positive CD4+ T cells” value is recorded as 0.079 and the “Maximum Frequency of TNFα/IFNγ Double Positive CD8+ T cells” value is 0.39.
